Assay results as given in paper PMC4030805 (Analytical Chemistry, 2014).

Target: biotinylated Bcl-xL immobilized on streptavidin magnetic beads (Homo sapiens, UniProt Q07817)
Assay: AMMP target-binding assay with in vitro translated peptides
Conditions: concentration taken from the HA tag competition assay (Figure 3c)

Sequence of biotinylated Bcl-xL immobilized on streptavidin magnetic beads (Q07817 1-209 limits assumed): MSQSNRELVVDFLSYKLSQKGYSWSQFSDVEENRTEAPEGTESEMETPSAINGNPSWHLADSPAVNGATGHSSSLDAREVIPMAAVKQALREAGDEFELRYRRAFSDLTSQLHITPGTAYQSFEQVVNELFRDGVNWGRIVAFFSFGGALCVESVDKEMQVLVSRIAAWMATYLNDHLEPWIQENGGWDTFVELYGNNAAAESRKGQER

## H-MIETITIYKYKKAADHFSMSMGSGSGSYPYDVPDYA-NH2 [Pep1]
  peptide concentration giving robust signal over background: 100 pM
